The text below walks through data of patent US8383094B2, “Hepatitis C virus inhibitors” (Bristol-Myers Squibb Company, priority 2008, dated 2013).

In the first test the test system is HCV 1b genotype. Nature of the test: HCV Replicon assay (HCV-neo replicon cells, wild-type). The class given is cell-based. The conditions noted are these: HCV 1b genotype replicon; range class A-D; read-out: 1b EC50 (in μM or range).
Take `C=Cc1cccnc1C(=O)N1CCC[C@H]1C(=O)Nc1ccc(C#Cc2ccc(NC(=O)[C@@H]3CCCN3C(=O)c3ncccc3C=C)cc2)cc1` [Example D36.3, (2S,2′S)-N,N′-(4,4′-(ethyne-1,2-diyl)bis(4,1-phenylene))bis(1-(3-vinylpicolinoyl)pyrrolidine-2-carboxamide)]: the EC50 lay within 100 to 999 nM. On the same count and under the same terms, to `CCc1sc(Cl)nc1C(=O)N1CCC[C@H]1C(=O)Nc1ccc(C#Cc2ccc(NC(=O)[C@@H]3CCCN3C(=O)c3nc(Cl)sc3CC)cc2)cc1` [Example D36.1, (2S,2′S)-N,N′-(4,4′-(ethyne-1,2-diyl)bis(4,1-phenylene))bis(1-(2-chloro-5-ethylthiazole-4-carbonyl)pyrrolidine-2-carboxamide)] belongs 100 to 999 nM.

Staying with this test, now noted: HCV 1b genotype replicon; read-out: 1b EC50 (in μM or range).
With `COC(=O)N[C@@H](C(=O)N1CCC[C@H]1C(=O)Nc1ccc(C#Cc2ccc(NC(=O)[C@@H]3CCCN3C(=O)[C@H](NC(=O)OC)c3ccccc3)cc2)cc1)c1ccccc1` [VN55, Dimethyl (1,2-ethynediylbis(4,1-phenylenecarbamoyl(2S)-2,1-pyrrolidinediyl((1R)-2-oxo-1-phenyl-2,1-ethanediyl)))biscarbamate], the EC50 stood at 0.013 nM.

Still in this test, the particulars now being: Hepatitis C virus, HCV 1b genotype replicon; range class A-D; read-out: 1b EC50 (in μM or range).
Take `O=C(Nc1ccc(C#Cc2ccc(NC(=O)[C@@H]3CCCN3C(=O)Cc3ccccc3)cc2)cc1)C1CC1` [Example D15, N-(4-((4-((cyclopropylcarbonyl)amino)phenyl)ethynyl)phenyl)-1-(phenylacetyl)-L-prolinamide]: the EC50 fell in the range of 100 to 999 nM.

As for `CCN(C)C(C(=O)N1CCC[C@H]1C(=O)Nc1ccc(C#Cc2ccc(NC(=O)[C@@H]3CCCN3C(=O)C(c3ccccc3)N(C)CC)cc2)cc1)c1ccccc1` (stereo partly drawn) [VN47, (2S,2′S)-N,N′-(1,2-ethynediyldi-4,1-phenylene)bis(1-((ethyl(methyl)amino)(phenyl)acetyl)-2-pyrrolidinecarboxamide)], the 50% effective concentration (EC50) lay in the range of 4.57 to 99 nM. Take `CC(C)(C)OC(=O)N[C@H](C(=O)N1CCC[C@H]1C(=O)Nc1ccc(C#Cc2ccc(NC(=O)[C@@H]3CCCN3C(=O)[C@@H](NC(=O)OC(C)(C)C)c3ccccc3)cc2)cc1)c1ccccc1` [VN22, Step a, di-tert-butyl(1,2-ethynediylbis(4,1-phenylenecarbamoyl(2S)-2,1-pyrrolidinediyl((1S)-2-oxo-1-phenyl-2,1-ethanediyl)))biscarbamate]: the half-maximal effective concentration (EC50) is under 4.57 nM. On the same count and under the same terms, to `COc1cccc2c(C(=O)N3CCC[C@H]3C(=O)Nc3ccc(C#Cc4ccc(NC(=O)[C@@H]5CCCN5C(=O)CC5CC5)cc4)cc3)nc(Cl)cc12` [Example D47, (2S)-1-((3-Chloro-5-methoxy-1-isoquinolinyl)carbonyl)-N-(4-((4-((((2S)-1-(cyclopropylacetyl)-2-pyrrolidinyl)carbonyl)amino)phenyl)ethynyl)phenyl)-2-pyrrolidinecarboxamide] belongs 4.57 to 99 nM. The same measure, in the same setting: in the case of `CC(=O)N[C@@H](C(=O)N1CCC[C@H]1C(=O)Nc1ccc(C#Cc2ccc(NC(=O)[C@@H]3CCCN3C(=O)[C@H](NC(C)=O)c3ccccc3)cc2)cc1)c1ccccc1` [VN26, (2S,2′S)-N,N′-(1,2-ethynediyldi-4,1-phenylene)bis(1-((2R)-2-acetamido-2-phenylacetyl)-2-pyrrolidinecarboxamide)] it was under 4.57 nM; in that of `CCC(O)(C(=O)N1CCC[C@H]1C(=O)Nc1ccc(C#Cc2ccc(NC(=O)[C@@H]3CCCN3C(=O)C(O)(CC)c3ccccc3)cc2)cc1)c1ccccc1` (stereo partly drawn) [VN10, (2S,2′S)-N,N′-(1,2-ethynediyldi-4,1-phenylene)bis(1-(2-hydroxy-2-phenylbutanoyl)-2-pyrrolidinecarboxamide)], under 4.57 nM; in that of `COc1cccc2c(C(=O)N3CCC[C@H]3C(=O)Nc3ccc(C#Cc4ccc(NC(=O)[C@@H]5CCCN5C(C)=O)cc4)cc3)nc(Cl)cc12` [Example D46, (2S)-1-Acetyl-N-(4-((4-((((2S)-1-((3-chloro-5-methoxy-1-isoquinolinyl)carbonyl)-2-pyrrolidinyl)carbonyl)amino)phenyl)ethynyl)phenyl)-2-pyrrolidinecarboxamide], 100 to 999 nM.

In the case of `CC[C@H](C(=O)N1CCC[C@H]1C(=O)Nc1ccc(C#Cc2ccc(NC(=O)[C@@H]3CCCN3C(=O)[C@@H](CC)c3ccccc3)cc2)cc1)c1ccccc1` [VN6, (2S,2′S)-N,N′-(1,2-ethynediyldi-4,1-phenylene)bis(1-((2S)-2-phenylbutanoyl)-2-pyrrolidinecarboxamide)], the EC50 fell in the range of 4.57 to 99 nM. Consider `CC(C)(C)OC(=O)N[C@@H](C(=O)N1CCC[C@H]1C(=O)Nc1ccc(C#Cc2ccc(NC(=O)[C@@H]3CCCN3C(=O)[C@H](NC(=O)OC(C)(C)C)c3ccccc3)cc2)cc1)c1ccccc1` [VN23, Step a, di-tert-butyl(1,2-ethynediylbis(4,1-phenylenecarbamoyl(2S)-2,1-pyrrolidinediyl((1R)-2-oxo-1-phenyl-2,1-ethanediyl)))biscarbamate], for which the EC50 is under 4.57 nM. Same read-out and setting: in the case of `O=C(Nc1ccc(C#Cc2ccc(NC(=O)[C@@H]3CCCCN3C(=O)OCc3ccccc3)cc2)cc1)[C@@H]1CCCCN1C(=O)OCc1ccccc1` [Example D12, Dibenzyl (2S,2′S)-2,2′-(1,2-ethynediylbis(4,1-phenylenecarbamoyl))di(1-piperidinecarboxylate)] it was 100 to 999 nM; in that of `O=C(Nc1ccc(C#Cc2ccc(NC(=O)C3CCN(C(=O)OCc4ccccc4)C3)cc2)cc1)C1CCN(C(=O)OCc2ccccc2)C1` (stereo not drawn) [Example D5, Dibenzyl3,3′-(1,2-ethynediylbis(4,1-phenylenecarbamoyl))di(1-pyrrolidinecarboxylate)], 1000 to 10000 nM. Same read-out and setting: to `O=C(Nc1ccc(C#Cc2ccc(NC(=O)[C@@H]3CCCN3C(=O)[C@H]3CCCO3)cc2)cc1)[C@H]1CCCO1` [Example D25, 1-((2R)-Tetrahydro-2-furanylcarbonyl)-N-(4-((4-(((2R)-tetrahydro-2-furanylcarbonyl)amino)phenyl)ethynyl)phenyl)-L-prolinamide] belongs 1000 to 10000 nM. Still for that read-out and setting: to `CN(C)[C@@H](C(=O)N1CCC[C@H]1C(=O)Nc1ccc(C#Cc2ccc(NC(=O)[C@@H]3CCCN3C(=O)[C@@H](c3ccccc3)N(C)C)cc2)cc1)c1ccccc1` [VN23, (2S,2′S)-N,N′-(1,2-ethynediyldi-4,1-phenylene)bis(1-((2R)-2-(dimethylamino)-2-phenylacetyl)-2-pyrrolidinecarboxamide)] belongs under 4.57 nM. Turning to `CN(C)c1ccc(C#Cc2ccc(NC(=O)[C@@H]3CCCN3C(=O)[C@@H](c3ccccc3)N(C)C)cc2)cc1` [Example D60, (S)-1-((R)-2-(dimethylamino)-2-phenylacetyl)-N-(4-((4-(dimethylamino)phenyl)ethynyl)phenyl)pyrrolidine-2-carboxamide], the half-maximal effective concentration (EC50) was 100 to 999 nM.

Consider `CC(=O)N1CCN(C(C(=O)N2CCC[C@H]2C(=O)Nc2ccc(C#Cc3ccc(NC(=O)[C@@H]4CCCN4C(=O)C(c4ccccc4)N4CCN(C(C)=O)CC4)cc3)cc2)c2ccccc2)CC1` (stereo partly drawn) [VN48, (2S,2′S)-N,N′-(1,2-ethynediyldi-4,1-phenylene)bis(1-((4-acetyl-1-piperazinyl)(phenyl)acetyl)-2-pyrrolidinecarboxamide)], for which the EC50 was under 4.57 nM. Take `O=C(CC1CC1)Nc1ccc(C#Cc2ccc(NC(=O)[C@@H]3CCCN3C(=O)OCc3ccccc3)cc2)cc1` [Example D19, Benzyl (2S)-2-((4-((4-((cyclopropylacetyl)amino)phenyl)ethynyl)phenyl)carbamoyl)-1-pyrrolidinecarboxylate]: the half-maximal effective concentration (EC50) lay within 100 to 999 nM. With `CNC(C(=O)N1CCC[C@H]1C(=O)Nc1ccc(C#Cc2ccc(NC(=O)[C@@H]3CCCN3C(=O)C(NC)c3ccccc3)cc2)cc1)c1ccccc1` (stereo partly drawn) [VN30, (2S,2′S)-N,N′-(1,2-ethynediyldi-4,1-phenylene)bis(1-((methylamino)(phenyl)acetyl)-2-pyrrolidinecarboxamide)], the EC50 is under 4.57 nM. Turning to `CN(CC(N)=O)C(C(=O)N1CCC[C@H]1C(=O)Nc1ccc(C#Cc2ccc(NC(=O)[C@@H]3CCCN3C(=O)C(c3ccccc3)N(C)CC(N)=O)cc2)cc1)c1ccccc1` (single isomer, unassigned) [VN34], the half-maximal effective concentration (EC50) was under 4.57 nM. As for `O=C(Nc1ccc(C#Cc2ccc(NC(=O)[C@@H]3CCCN3C(=O)/C=C/c3ccccc3)nc2)cn1)[C@@H]1CCCN1C(=O)/C=C/c1ccccc1` [Example D49, (2S,2′S)-N,N′-(1,2-ethynediyldi-5,2-pyridinediyl)bis(1-((2E)-3-phenyl-2-propenoyl)-2-pyrrolidinecarboxamide)], the concentration for a half-maximal effect (EC50) was in the range of 100 to 999 nM.

Consider `O=C(Nc1ccc(C#Cc2ccc(NC(=O)[C@@H]3CCCN3C(=O)[C@H]3CCCO3)cc2)cc1)[C@@H]1CCCN1C(=O)[C@H]1CCCO1` [Example D26, (2S,2′S)-N,N′-(1,2-ethynediyldi-4,1-phenylene)bis(1-((2R)-tetrahydro-2-furanylcarbonyl)-2-pyrrolidinecarboxamide)], for which the EC50 is 4.57 to 99 nM. Still for that read-out and setting: in the case of `O=C(Nc1ccc(C#Cc2ccc(NC(=O)[C@@H]3CCCN3C(=O)Cc3cccnc3)cc2)cc1)[C@@H]1CCCN1C(=O)Cc1cccnc1` [Example D39, (2S,2′S)-N,N′-(1,2-ethynediyldi-4,1-phenylene)bis(1-(3-pyridinylacetyl)-2-pyrrolidinecarboxamide)] it was under 4.57 nM.

The test is the same for the next values; noted with them: Hepatitis C virus, HCV 1b genotype replicon; read-out: 1b EC50 (in μM or range).
On to `O=C(Nc1ccc(C#Cc2ccc(NC(=O)[C@@H]3CCCN3C(=O)/C=C/c3ccccc3)cn2)nc1)[C@@H]1CCCN1C(=O)/C=C/c1ccccc1` [Example D53, (2S,2′S)-N,N′-(1,2-ethynediyldi-2,5-pyridinediyl)bis(1-((2E)-3-phenyl-2-propenoyl)-2-pyrrolidinecarboxamide)], for which the EC50 was 2730 nM.

Consider `O=CN[C@@H](C(=O)N1CCC[C@H]1C(=O)Nc1ccc(C#Cc2ccc(NC(=O)[C@@H]3CCCN3C(=O)[C@H](NC=O)c3ccccc3)cc2)cc1)c1ccccc1` [VN11, (2S,2′S)-N,N′-(1,2-ethynediyldi-4,1-phenylene)bis(1-((2R)-2-formamido-2-phenylacetyl)-2-pyrrolidinecarboxamide)], for which the half-maximal effective concentration (EC50) was found to be 0.01 nM. As to `CCOC(=O)N[C@@H](C(=O)N1CCC[C@H]1C(=O)Nc1ccc(C#Cc2ccc(NC(=O)[C@@H]3CCCN3C(=O)[C@H](NC(=O)OCC)c3ccccc3)cc2)cc1)c1ccccc1` [VN54, Diethyl (1,2-ethynediylbis(4,1-phenylenecarbamoyl(2S)-2,1-pyrrolidinediyl((1R)-2-oxo-1-phenyl-2,1-ethanediyl)))biscarbamate], the EC50 was found to be 0.018 nM.
